Tests used:
Type in all cases: in vivo
[1] = test system: barnyardgrass (Echinochloa crus-galli); test: Test G Post-Emergence Protocol; conditions: Echinochloa crus-galli, post-emergence, 312 h; for pest or weed control at 15.625 g/ha: 15.625 g ai/ha, evaluated after 13 days (100=total damage to plant; 0=no damage to plant), read-out: Barnyardgrass damage rating; for pest or weed control at 62.5 g/ha: 62.5 g ai/ha, read-out: Barnyardgrass damage rating (100=total damage to plant; 0=no damage to plant); for pest or weed control at 62.5 g/ha / pest or weed control at 250 g/ha: evaluated after 13 days; for pest or weed control at 250 g/ha: 250 g ai/ha, read-out: damage to plant, Barnyardgrass (100=total damage to plant; 0=no damage to plant)
How it was run: (§1)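 A glasshouse post-emergence test: 8-day-old plants sprayed at 15.625, 62.5 or 250 g/ha, then grown at 24/16 °C day/night with 14 h light and 65% humidity. Damage rated 13 days later, 0–100.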

[2] = test system: redroot pigweed (Amaranthus retroflexus); test: Test G Post-Emergence Protocol; conditions: Amaranthus retroflexus, post-emergence, 312 h; for pest or weed control at 15.625 g/ha: 15.625 g ai/ha, evaluated after 13 days (100=total damage to plant; 0=no damage to plant), read-out: Pigweed, Redroot damage rating; for pest or weed control at 62.5 g/ha: 62.5 g ai/ha, read-out: Pigweed, Redroot damage rating (100=total damage to plant; 0=no damage to plant); for pest or weed control at 62.5 g/ha / pest or weed control at 250 g/ha: evaluated after 13 days; for pest or weed control at 250 g/ha: 250 g ai/ha, read-out: damage to plant, Pigweed, Redroot (100=total damage to plant; 0=no damage to plant)
How it was run: as §1

[3] = test system: ivy-leaved morning glory (Ipomoea hederacea); test: Test G Post-Emergence Protocol; conditions: Ipomoea, post-emergence, 312 h; for pest or weed control at 15.625 g/ha: 15.625 g ai/ha, evaluated after 13 days (100=total damage to plant; 0=no damage to plant), read-out: Morningglory, Ivy-leaved damage rating; for pest or weed control at 62.5 g/ha: 62.5 g ai/ha, read-out: Morningglory, Ivy-leaved damage rating (100=total damage to plant; 0=no damage to plant); for pest or weed control at 62.5 g/ha / pest or weed control at 250 g/ha: evaluated after 13 days; for pest or weed control at 250 g/ha: 250 g ai/ha, read-out: damage to plant, Morningglory, Ivy-leaved (100=total damage to plant; 0=no damage to plant)
How it was run: as §1

[4] = test system: velvetleaf (Abutilon theophrasti); test: Test G Post-Emergence Protocol; conditions: Abutilon theophrasti, post-emergence, 312 h; for pest or weed control at 15.625 g/ha: 15.625 g ai/ha, evaluated after 13 days (100=total damage to plant; 0=no damage to plant), read-out: Velvetleaf damage rating; for pest or weed control at 62.5 g/ha: 62.5 g ai/ha, read-out: Velvetleaf damage rating (100=total damage to plant; 0=no damage to plant); for pest or weed control at 62.5 g/ha / pest or weed control at 250 g/ha: evaluated after 13 days; for pest or weed control at 250 g/ha: 250 g ai/ha, read-out: damage to plant, Velvetleaf (100=total damage to plant; 0=no damage to plant)
How it was run: as §1

corn (Zea mays) [5] = test: Test G Post-Emergence Protocol; conditions: Zea mays, post-emergence, 312 h; for plant injury at 15.625 g/ha: 15.625 g ai/ha, evaluated after 13 days (100=total damage to plant; 0=no damage to plant), read-out: Corn damage rating; for plant injury at 62.5 g/ha: 62.5 g ai/ha, read-out: Corn damage rating (100=total damage to plant; 0=no damage to plant); for plant injury at 62.5 g/ha / plant injury at 250 g/ha: evaluated after 13 days; for plant injury at 250 g/ha: 250 g ai/ha, read-out: damage to plant, Corn (100=total damage to plant; 0=no damage to plant)
How it was run: as §1

[6] = test system: giant foxtail (Setaria faberi); test: Test G Post-Emergence Protocol; conditions: Setaria faberi, post-emergence, 312 h; for pest or weed control at 15.625 g/ha: 15.625 g ai/ha, evaluated after 13 days (100=total damage to plant; 0=no damage to plant), read-out: Foxtail, Giant damage rating; for pest or weed control at 62.5 g/ha: 62.5 g ai/ha, read-out: Foxtail, Giant damage rating (100=total damage to plant; 0=no damage to plant); for pest or weed control at 62.5 g/ha / pest or weed control at 250 g/ha: evaluated after 13 days; for pest or weed control at 250 g/ha: 250 g ai/ha, read-out: damage to plant, Foxtail, Giant (100=total damage to plant; 0=no damage to plant)
How it was run: as §1

[7] = test system: barnyardgrass (Echinochloa crus-galli); test: Test G Pre-Emergence Protocol; conditions: Echinochloa crus-galli, pre-emergence, 312 h, evaluated after 13 days; for pest or weed control at 15.625 g/ha: 15.625 g ai/ha, read-out: Barnyard grass damage rating (100=total damage to plant; 0=no damage to plant); for pest or weed control at 62.5 g/ha: 62.5 g ai/ha, 100=total damage to plant, 0=no damage to plant, read-out: plant damage rating, Barnyardgrass; for pest or weed control at 250 g/ha: 250 g ai/ha, read-out: Barnyardgrass damage rating (100=total damage to plant; 0=no damage to plant)
How it was run: (§2)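 Visual injury (0–100) at day 13 after a single pre-emergence spray. Rates: 15.625, 62.5, 250 g/ha in acetone–water 50:50 with 0.5% Tween 20. Growth conditions: 24/16° C, 14 h light, 65% humidity.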

[8] = test system: redroot pigweed (Amaranthus retroflexus); test: Test G Pre-Emergence Protocol; conditions: Amaranthus retroflexus, pre-emergence, 312 h, evaluated after 13 days; for pest or weed control at 15.625 g/ha: 15.625 g ai/ha; for pest or weed control at 15.625 g/ha / pest or weed control at 250 g/ha: read-out: Pigweed, Redroot damage rating (100=total damage to plant; 0=no damage to plant); for pest or weed control at 250 g/ha: 250 g ai/ha; for pest or weed control at 62.5 g/ha: 62.5 g ai/ha, 100=total damage to plant, 0=no damage to plant, read-out: plant damage rating, Pigweed, Redroot
How it was run: as §2

[9] = test system: ivy-leaved morning glory (Ipomoea hederacea); test: Test G Pre-Emergence Protocol; conditions: Ipomoea, pre-emergence, 312 h, evaluated after 13 days; for pest or weed control at 15.625 g/ha: 15.625 g ai/ha, read-out: Morning-glory, Ivy-leaved damage rating (100=total damage to plant; 0=no damage to plant); for pest or weed control at 62.5 g/ha: 62.5 g ai/ha, 100=total damage to plant, 0=no damage to plant, read-out: plant damage rating, Morningglory, Ivy-leaved; for pest or weed control at 250 g/ha: 250 g ai/ha, read-out: Morningglory, Ivy-leaved damage rating (100=total damage to plant; 0=no damage to plant)
How it was run: as §2

[10] = test system: velvetleaf (Abutilon theophrasti); test: Test G Pre-Emergence Protocol; conditions: Abutilon theophrasti, pre-emergence, 312 h, evaluated after 13 days; for pest or weed control at 15.625 g/ha: 15.625 g ai/ha; for pest or weed control at 15.625 g/ha / pest or weed control at 250 g/ha: read-out: Velvetleaf damage rating (100=total damage to plant; 0=no damage to plant); for pest or weed control at 62.5 g/ha: 62.5 g ai/ha, 100=total damage to plant, 0=no damage to plant, read-out: plant damage rating, Velvetleaf; for pest or weed control at 250 g/ha: 250 g ai/ha
How it was run: as §2

corn (Zea mays) [11] = test: Test G Pre-Emergence Protocol; conditions: Zea mays, pre-emergence, 312 h, evaluated after 13 days; for plant injury at 15.625 g/ha: 15.625 g ai/ha; for plant injury at 15.625 g/ha / plant injury at 250 g/ha: read-out: Corn damage rating (100=total damage to plant; 0=no damage to plant); for plant injury at 62.5 g/ha: 62.5 g ai/ha, 100=total damage to plant, 0=no damage to plant, read-out: plant damage rating, Corn; for plant injury at 250 g/ha: 250 g ai/ha
How it was run: as §2

[12] = test system: giant foxtail (Setaria faberi); test: Test G Pre-Emergence Protocol; conditions: Setaria faberi, pre-emergence, 312 h, evaluated after 13 days; for pest or weed control at 15.625 g/ha: 15.625 g ai/ha; for pest or weed control at 15.625 g/ha / pest or weed control at 250 g/ha: read-out: Foxtail, Giant damage rating (100=total damage to plant; 0=no damage to plant); for pest or weed control at 62.5 g/ha: 62.5 g ai/ha, 100=total damage to plant, 0=no damage to plant, read-out: plant damage rating, Foxtail, Giant; for pest or weed control at 250 g/ha: 250 g ai/ha
How it was run: as §2

Structure (SMILES) | pest or weed control at 15.625 g/ha [1] [%] | pest or weed control at 62.5 g/ha [1] [%] | pest or weed control at 250 g/ha [1] [%] | pest or weed control at 15.625 g/ha [2] [%] | pest or weed control at 62.5 g/ha [2] [%] | pest or weed control at 250 g/ha [2] [%] | pest or weed control at 15.625 g/ha [3] [%] | pest or weed control at 62.5 g/ha [3] [%] | pest or weed control at 250 g/ha [3] [%] | pest or weed control at 15.625 g/ha [4] [%] | pest or weed control at 62.5 g/ha [4] [%] | pest or weed control at 250 g/ha [4] [%] | plant injury at 15.625 g/ha (corn (Zea mays) [5]) [%] | plant injury at 62.5 g/ha (corn (Zea mays) [5]) [%] | plant injury at 250 g/ha (corn (Zea mays) [5]) [%] | pest or weed control at 15.625 g/ha [6] [%] | pest or weed control at 62.5 g/ha [6] [%] | pest or weed control at 250 g/ha [6] [%] | pest or weed control at 15.625 g/ha [7] [%] | pest or weed control at 62.5 g/ha [7] [%] | also measured
CN1C[C@H](c2ccc(C(F)(F)F)cc2)[C@@H](C(=O)Nc2ccccc2S(C)(=O)=O)C1=O (racemic) [Compound 1459] | 0 | 10 | 20 | 30 | 40 | 40 | 0 | 0 | 20 | 0 | 0 | 0 | 10 | 10 | 10 | 10 | 60 | 60 | 20 | 60 | pest or weed control at 250 g/ha [7]: 60%; pest or weed control at 15.625 g/ha [8]: 0%; pest or weed control at 250 g/ha [8]: 60%; pest or weed control at 15.625 g/ha [9]: 0%; pest or weed control at 62.5 g/ha [9]: 0%; pest or weed control at 250 g/ha [9]: 0%; pest or weed control at 15.625 g/ha [10]: 0%; pest or weed control at 62.5 g/ha [10]: 0%; pest or weed control at 250 g/ha [10]: 0%; plant injury at 15.625 g/ha (corn (Zea mays) [11]): 0%; plant injury at 62.5 g/ha (corn (Zea mays) [11]): 0%; plant injury at 250 g/ha (corn (Zea mays) [11]): 0%; pest or weed control at 15.625 g/ha [12]: 40%; pest or weed control at 62.5 g/ha [12]: 60%; pest or weed control at 250 g/ha [12]: 80%
COC(=O)c1cc([C@H]2CN(C)C(=O)[C@@H]2C(=O)Nc2ccccc2F)ccc1Cl (racemic) [Compound 1460] | 20 | 30 | 60 | 0 | 10 | 20 | 0 | 0 | 10 | 0 | 0 | 10 | 10 | 0 | 40 | 40 | 70 | 70 | 0 | 70 | pest or weed control at 250 g/ha [7]: 90%; pest or weed control at 15.625 g/ha [8]: 0%; pest or weed control at 62.5 g/ha [8]: 40%; pest or weed control at 250 g/ha [8]: 70%; pest or weed control at 15.625 g/ha [9]: 0%; pest or weed control at 62.5 g/ha [9]: 40%; pest or weed control at 250 g/ha [9]: 50%; pest or weed control at 15.625 g/ha [10]: 0%; pest or weed control at 62.5 g/ha [10]: 0%; pest or weed control at 250 g/ha [10]: 0%; plant injury at 15.625 g/ha (corn (Zea mays) [11]): 0%; plant injury at 62.5 g/ha (corn (Zea mays) [11]): 0%; plant injury at 250 g/ha (corn (Zea mays) [11]): 10%; pest or weed control at 15.625 g/ha [12]: 10%; pest or weed control at 62.5 g/ha [12]: 80%; pest or weed control at 250 g/ha [12]: 90%
CN1C[C@H](c2cccc(C#N)c2)[C@@H](C(=O)Nc2ccccc2F)C1=O (racemic) [Compound 1471] | 30 | 30 | 50 | 10 | 0 | 20 | 10 | 0 | 20 | 10 | 0 | 10 | 10 | 0 | 0 | 10 | 60 | 70 | 10 | 70 | pest or weed control at 250 g/ha [7]: 90%; pest or weed control at 15.625 g/ha [8]: 0%; pest or weed control at 62.5 g/ha [8]: 0%; pest or weed control at 250 g/ha [8]: 0%; pest or weed control at 15.625 g/ha [9]: 0%; pest or weed control at 62.5 g/ha [9]: 0%; pest or weed control at 250 g/ha [9]: 20%; pest or weed control at 15.625 g/ha [10]: 0%; pest or weed control at 62.5 g/ha [10]: 0%; pest or weed control at 250 g/ha [10]: 0%; plant injury at 15.625 g/ha (corn (Zea mays) [11]): 0%; plant injury at 62.5 g/ha (corn (Zea mays) [11]): 0%; plant injury at 250 g/ha (corn (Zea mays) [11]): 0%; pest or weed control at 15.625 g/ha [12]: 40%; pest or weed control at 62.5 g/ha [12]: 80%; pest or weed control at 250 g/ha [12]: 90%

Reference: patent publication US12077503B2, “Substituted cyclic amides and their use as herbicides” (FMC CORPORATION, priority 2015, dated 2024)
